Data reported in PubChem BioAssay (NCI).
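Grown in 96-well plates, cells were treated for 48 hours with each compound at five concentrations. Insufficient inhibition: endpoint recorded as highest concentration tested. Abbreviation: GI50, concentration required for 50% inhibition of growth. TGI marks complete inhibition of growth.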

Experiments:
Assay in all cases: inhibition of tumour cell growth, NCI panel, 48 h
[1] = tested on: MDA-MB-435
[2] = tested on: SK-OV-3 ovarian
[3] = tested on: HCT-15 colon
[4] = tested on: SK-MEL-2 melanoma
[5] = tested on: TK-10 renal
[6] = tested on: OVCAR-3 ovarian
[7] = tested on: OVCAR-4 ovarian
[8] = tested on: UO-31 renal
[9] = tested on: MCF7 breast
[10] = tested on: HCT-116 colon
[11] = tested on: LOX IMVI melanoma
[12] = tested on: NCI-H226 lung
[13] = tested on: U251 CNS
[14] = tested on: NCI-H460 lung
[15] = tested on: SF-295 CNS
[16] = tested on: PC-3 prostate
[17] = tested on: OVCAR-8 ovarian
[18] = tested on: NCI/ADR-RES ovarian
[19] = tested on: MALME-3M melanoma
[20] = tested on: SW-620 colon
[21] = tested on: HT29 colon
[22] = tested on: DU-145 prostate
[23] = tested on: RXF 393 renal
[24] = tested on: NCI-H522 lung
[25] = tested on: ACHN renal
[26] = tested on: MDA-MB-231 breast
[27] = tested on: K-562 leukemia
[28] = tested on: UACC-62 melanoma
[29] = tested on: SNB-19 CNS
[30] = tested on: OVCAR-5 ovarian
[31] = tested on: CAKI-1 renal
[32] = tested on: BT-549 breast
[33] = tested on: M14 melanoma
[34] = tested on: NCI-H23 lung
[35] = tested on: EKVX NSCLC
[36] = tested on: MOLT-4 leukemia
[37] = tested on: HOP-92 NSCLC
[38] = tested on: SF-539 CNS
[39] = tested on: UACC-257 melanoma
[40] = tested on: SR leukemia
[41] = tested on: RPMI-8226 leukemia
[42] = tested on: A549 NSCLC
[43] = tested on: SN12C renal
[44] = tested on: 786-0 renal
[45] = tested on: COLO 205 colon
[46] = tested on: CCRF-CEM leukemia
[47] = tested on: HOP-62 NSCLC
[48] = tested on: SK-MEL-5 melanoma
[49] = tested on: SNB-75 CNS
[50] = tested on: HL-60(TB) leukemia
[51] = tested on: IGROV1 ovarian
[52] = tested on: SF-268 CNS
[53] = tested on: T-47D breast
[54] = tested on: SK-MEL-28 melanoma
[55] = tested on: KM12 colon
[56] = tested on: HCC-2998 colon
[57] = tested on: HS 578T breast
[58] = tested on: A498 renal

Compound: Clc1ccc(C2c3ccccc3-c3nccn32)c(Cl)c1 (configuration not stated)
- GI50 [1]: 10.6 µM
- TGI [1]: 22.5 µM
- GI50 [2]: 14.7 µM
- TGI [2]: 33.2 µM
- GI50 [3]: 11.5 µM
- TGI [3]: 24.4 µM
- GI50 [4]: 11.3 µM
- TGI [4]: 26 µM
- GI50 [5]: 13.7 µM
- TGI [5]: 28.6 µM
- GI50 [6]: 11 µM
- TGI [6]: 22.9 µM
- GI50 [7]: 3.6 µM
- TGI [7]: 17.4 µM
- GI50 [8]: 7.37 µM
- TGI [8]: 23.3 µM
- GI50 [9]: 12.5 µM
- TGI [9]: 25.7 µM
- GI50 [10]: 9.7 µM
- TGI [10]: 39.2 µM
- GI50 [11]: 11.2 µM
- TGI [11]: 23.9 µM
- GI50 [12]: 6.92 µM
- TGI [12]: 26 µM
- GI50 [13]: 13.4 µM
- TGI [13]: 26.2 µM
- GI50 [14]: 12.2 µM
- TGI [14]: 24.6 µM
- GI50 [15]: 4.52 µM
- TGI [15]: 18.3 µM
- GI50 [16]: 11.6 µM
- TGI [16]: 31.3 µM
- GI50 [17]: 12.6 µM
- TGI [17]: 32.5 µM
- GI50 [18]: 6.57 µM
- TGI [18]: 24 µM
- GI50 [19]: 10.6 µM
- TGI [19]: 23.1 µM
- GI50 [20]: 13.6 µM
- TGI [20]: 26.5 µM
- GI50 [21]: 9.87 µM
- TGI [21]: 24.6 µM
- GI50 [22]: 13.6 µM
- TGI [22]: 26.4 µM
- GI50 [23]: 14.6 µM
- TGI [23]: 30.6 µM
- GI50 [24]: 11.4 µM
- TGI [24]: 31.7 µM
- GI50 [25]: 12.3 µM
- TGI [25]: 26.9 µM
- GI50 [26]: 11.5 µM
- TGI [26]: 26 µM
- GI50 [27]: 1.37 µM
- TGI [27]: > 40.5 µM
- GI50 [28]: 9.66 µM
- TGI [28]: 23 µM
- GI50 [29]: 13.2 µM
- TGI [29]: 27.4 µM
- GI50 [30]: 14.8 µM
- TGI [30]: 30.1 µM
- GI50 [31]: 1.98 µM
- TGI [31]: 19 µM
- GI50 [32]: 9.01 µM
- TGI [32]: 21.7 µM
- GI50 [33]: 21.2 µM
- TGI [33]: 62.4 µM
- GI50 [34]: 6.56 µM
- TGI [34]: 35.5 µM
- GI50 [35]: 5.28 µM
- TGI [35]: 19.3 µM
- GI50 [36]: 2.8 µM
- TGI [36]: 20.5 µM
- GI50 [37]: 9.94 µM
- TGI [37]: 25.7 µM
- GI50 [38]: 15 µM
- TGI [38]: 28.5 µM
- GI50 [39]: 12.5 µM
- TGI [39]: 28.9 µM
- GI50 [40]: 2.34 µM
- TGI [40]: 30 µM
- GI50 [41]: 0.941 µM
- TGI [41]: 8.48 µM
- GI50 [42]: 13.4 µM
- TGI [42]: 36.7 µM
- GI50 [43]: 13.8 µM
- TGI [43]: 30.6 µM
- GI50 [44]: 19.5 µM
- TGI [44]: > 55.2 µM
- GI50 [45]: 13.5 µM
- TGI [45]: 28 µM
- GI50 [46]: 2.77 µM
- TGI [46]: > 44.1 µM
- GI50 [47]: 16.9 µM
- TGI [47]: 44.2 µM
- GI50 [48]: 6.3 µM
- TGI [48]: 18.8 µM
- GI50 [49]: 11.2 µM
- TGI [49]: 23.7 µM
- GI50 [50]: 2.25 µM
- TGI [50]: 18.4 µM
- GI50 [51]: 11.7 µM
- TGI [51]: > 47.9 µM
- GI50 [52]: 14 µM
- TGI [52]: 27.4 µM
- GI50 [53]: 5.13 µM
- TGI [53]: 32.8 µM
- GI50 [54]: 13.6 µM
- TGI [54]: 26.5 µM
- GI50 [55]: 13.2 µM
- TGI [55]: 26.6 µM
- GI50 [56]: 13.9 µM
- TGI [56]: 28.1 µM
- GI50 [57]: 13.6 µM
- TGI [57]: 35.5 µM
- GI50 [58]: 12.2 µM
- TGI [58]: 24.6 µM

Compound: CN1CCN(c2ccc3nc(-c4c5cccccc-5[nH]c4=O)[nH]c3c2)CC1
- GI50 [1]: 14.3 µM
- TGI [1]: 29.7 µM
- GI50 [2]: 9.43 µM
- TGI [2]: 83.1 µM
- GI50 [3]: 11.5 µM
- TGI [3]: 55.9 µM
- GI50 [4]: 27.1 µM
- TGI [4]: > 66.9 µM
- GI50 [5]: 27.9 µM
- TGI [5]: > 74.5 µM
- GI50 [6]: 17.2 µM
- TGI [6]: 58.2 µM
- GI50 [7]: 13.9 µM
- TGI [7]: 55.2 µM
- GI50 [8]: 3.53 µM
- TGI [8]: 52.9 µM
- GI50 [9]: 6.27 µM
- TGI [9]: 32.1 µM
- GI50 [10]: 9.55 µM
- TGI [10]: 25.5 µM
- GI50 [11]: 7.78 µM
- TGI [11]: 22.4 µM
- GI50 [12]: 7.18 µM
- TGI [12]: 55.9 µM
- GI50 [13]: 11.6 µM
- TGI [13]: 41 µM
- GI50 [14]: 5.45 µM
- TGI [14]: 27.2 µM
- GI50 [15]: 20.3 µM
- TGI [15]: > 76.5 µM
- GI50 [16]: 17.4 µM
- TGI [16]: > 100 µM
- GI50 [17]: 11.3 µM
- TGI [17]: > 72.2 µM
- GI50 [18]: 23.4 µM
- TGI [18]: 97.4 µM
- GI50 [19]: 14.6 µM
- TGI [19]: 31 µM
- GI50 [20]: 5.79 µM
- TGI [20]: 43.7 µM
- GI50 [21]: 8 µM
- TGI [21]: 23.1 µM
- GI50 [22]: 9.67 µM
- TGI [22]: 35.8 µM
- GI50 [23]: 3.39 µM
- TGI [23]: 15.8 µM
- GI50 [24]: 15.6 µM
- TGI [24]: > 46.8 µM
- GI50 [25]: 6.09 µM
- TGI [25]: 60.9 µM
- GI50 [26]: 11.8 µM
- TGI [26]: 36.7 µM
- GI50 [27]: 10.6 µM
- TGI [27]: 53.4 µM
- GI50 [28]: 19.6 µM
- TGI [28]: 43.4 µM
- GI50 [29]: 12.3 µM
- TGI [29]: 71.6 µM
- GI50 [30]: 15.9 µM
- TGI [30]: 52.1 µM
- GI50 [31]: 7.29 µM
- TGI [31]: > 62.1 µM
- GI50 [32]: 13.4 µM
- TGI [32]: 66 µM
- GI50 [33]: 13.3 µM
- TGI [33]: 27.8 µM
- GI50 [34]: 13.9 µM
- TGI [34]: 51.7 µM
- GI50 [35]: 29.4 µM
- TGI [35]: > 100 µM
- GI50 [36]: 3.49 µM
- TGI [36]: 22.3 µM
- GI50 [37]: 18 µM
- TGI [37]: > 100 µM
- GI50 [38]: 10.1 µM
- TGI [38]: 22.8 µM
- GI50 [39]: 17.6 µM
- TGI [39]: 35.3 µM
- GI50 [40]: 12.7 µM
- TGI [40]: 49.5 µM
- GI50 [41]: 16.8 µM
- TGI [41]: 62.4 µM
- GI50 [42]: 7.58 µM
- TGI [42]: > 59.3 µM
- GI50 [43]: 5.37 µM
- TGI [43]: > 80.9 µM
- GI50 [44]: 11.2 µM
- TGI [44]: 46.6 µM
- GI50 [45]: 8.39 µM
- TGI [45]: 22.2 µM
- GI50 [46]: 10.1 µM
- TGI [46]: > 84.1 µM
- GI50 [47]: 10.5 µM
- TGI [47]: 54.7 µM
- GI50 [48]: 14.8 µM
- TGI [48]: 28.3 µM
- GI50 [49]: 7.64 µM
- TGI [49]: > 45.2 µM
- GI50 [50]: 13.7 µM
- TGI [50]: 33.5 µM
- GI50 [51]: 5.27 µM
- TGI [51]: 45.5 µM
- GI50 [52]: 11.9 µM
- TGI [52]: 40.3 µM
- GI50 [53]: 30.8 µM
- TGI [53]: > 91.7 µM
- GI50 [54]: 15.6 µM
- TGI [54]: 30.3 µM
- GI50 [55]: 0.266 µM
- TGI [55]: 13.9 µM
- GI50 [56]: 13.7 µM
- TGI [56]: 37 µM
- GI50 [57]: 13 µM
- TGI [57]: > 100 µM
- GI50 [58]: 4.77 µM
- TGI [58]: 21.4 µM
